The values that follow come from patent publication US20250296971A1, “GASTRIC INHIBITORY PEPTIDE RECEPTOR LIGANDS” (priority 2021, published 2025).

*1 amine or outer side, *2 acyl side, *3 side chain or, on linkers, in order; H or OH if unused. Where a SMILES comes first, the peptide text is derived from it. Bridges are numbered along the chain shown (N, C = ends). Side-chain parts run from the residue outwards. [ ]: non-standard residue; d: D form. The star is where a group is joined. NH(1-deoxy-D-glucityl) = OC[C@@H](O)[C@@H](O)[C@H](O)[C@@H](O)CN*; X21 = O=C(CCP(=O)(O)CN1CCN(CP(=O)(O)CO)CCN(CP(=O)(O)CO)CC1)*; DOTA = O=C(O)CN1CCN(CC(=O)O)CCN(CC(=O)*)CCN(CC(=O)O)CC1; X9 = O=C(O)CN1CCN(CC(=O)O)CCN([C@H](CCC(=O)*)C(=O)O)CC1; Trp(5-Cl) = N[C@@H](Cc1c[nH]c2ccc(Cl)cc12)C(=O)O; Pyridine(2,6-diCH2) = c1cc(C[*:1])nc(C[*:2])c1; Pro(4R-NH2) = N[C@H]1CN[C@H](C(=O)O)C1; Glutaryl = O=C(CCCC(=O)[*:2])[*:1]; Hyp = O=C(O)[C@@H]1C[C@@H](O)CN1; X1 = O=C(CN1CCC(N[*:1])CC1)[*:2]; X30 = NCCNCC(CNCCN)C(=O)*; hSer = N[C@@H](CCO)C(=O)O; Api = NC1(C(=O)O)CCNCC1; Thp = NC1(C(=O)O)CCOCC1

The first assay concerns the target T1, GIPR (CHO-K1-hGIPR cells) (Homo sapiens, UniProt P48546).
T1 construct: host or cells: CHO-K1
T1 sequence (P48546 22-466): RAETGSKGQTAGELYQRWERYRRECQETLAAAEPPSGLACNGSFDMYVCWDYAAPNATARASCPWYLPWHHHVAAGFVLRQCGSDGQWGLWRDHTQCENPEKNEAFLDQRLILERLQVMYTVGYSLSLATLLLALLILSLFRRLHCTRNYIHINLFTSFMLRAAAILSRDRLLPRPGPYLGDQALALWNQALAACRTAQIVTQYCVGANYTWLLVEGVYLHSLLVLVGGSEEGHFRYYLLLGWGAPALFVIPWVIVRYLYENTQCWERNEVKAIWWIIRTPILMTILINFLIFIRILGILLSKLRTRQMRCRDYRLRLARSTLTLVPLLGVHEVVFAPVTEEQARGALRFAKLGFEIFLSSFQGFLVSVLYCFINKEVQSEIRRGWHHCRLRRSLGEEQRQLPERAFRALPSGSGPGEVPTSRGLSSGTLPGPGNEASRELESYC
Put plainly: FACS binding assay. Conditions: competition with 20 nM GIP-057, 4° C., 1 hour, read-out: pIC50 Category (converted). How it is done: In order to determine binding of compounds according to the present invention to GIPR-expressing cells, a FACS binding assay was established.
CHO-K1-hGIPR cells (GenScript Biotech, #M00486) were cultured in Ham's F12 medium (Sigma-Aldrich, #N4888) including 10% fetal calf serum (FCS), 2 mM L-glutamine, 100 U/mL penicillin, 100 μg/mL streptomycin, 200 μg/mL Zeocin and 100 μg/mL HygromycinB. Cells were detached with Accutase (Biolegend, #BLD-423201) and washed in FACS buffer (PBS including 1% FCS). Cells were diluted in FACS buffer to a final concentration of 500.000 cells per mL. 200 μL of the cell suspension were transferred to a u-shaped non-binding 96-well plate (Greiner) and cells were washed in ice-cold FACS buffer.
Cells were washed twice in FACS buffer. An additional incubation step with 1 μg/mL APC-Streptavidin (Miltenyi; #130-106-791) in 50 μL FACS buffer for 30 min on ice was performed followed by two washes with FACS buffer.
Cells were analyzed in an Attune NxT flow cytometer. Median fluorescence intensities (MFI) of the APC/Cy5-channel were calculated by Attune NxT software. MFI values were plotted against peptide concentration and four parameter logistic (4PL) curve fitting and EC50/pEC50 or IC50/pIC50 calculations were performed using ActivityBase software.
For the compound `CC[C@H](C)[C@@H]1NC(=O)[C@H](CC(C)C)NC(=O)C2(CCN(C(=O)CC[C@H](C(=O)O)N3CCN(CC(=O)O)CCN(CC(=O)O)CC3)CC2)NC(=O)[C@@H](NC(=O)[C@@H](CC(C)C)NC(=O)[C@H](CCC(=O)O)NC(=O)[C@@H]2C[C@@H](N)CN2C(=O)[C@H](Cc2c[nH]c3ccc(Cl)cc23)NC(=O)[C@H](Cc2c[nH]c3ccccc23)NC(=O)[C@H](CC(=O)O)NC(=O)CCCC(=O)NC[C@H](O)[C@@H](O)[C@H](O)[C@H](O)CO)CSCc2cccc(n2)CSC[C@@H](C(=O)NC2CCN(CC(=O)N[C@H](CCC(=O)NC[C@H](O)[C@@H](O)[C@H](O)[C@H](O)CO)C(N)=O)CC2)NC1=O` [GIP-028, AGLU-Glutar-Asp-Trp-5Clw-Tap-Glu-leu-[Cys(2Lut)-Apc(NODAGA)-Leu-Ile-Cys]-APAc-glu(AGLU)-NH2] ({NH(1-deoxy-D-glucityl)-Glutaryl}-DW[Trp(5-Cl)][Pro(4R-NH2)]E[dL]C[Api](X9)LIC[X1][dE](NH(1-deoxy-D-glucityl))-NH2; linker 7-11 via Pyridine(2,6-diCH2)), the IC50 is less than 0.01 µM.

Turning to `CC[C@H](C)[C@@H]1NC(=O)[C@H](CC(C)C)NC(=O)C2(CCN(C(=O)C(CNCCN)CNCCN)CC2)NC(=O)[C@@H](NC(=O)[C@@H](CC(C)C)NC(=O)[C@H](CCC(=O)O)NC(=O)[C@@H]2C[C@@H](N)CN2C(=O)[C@H](Cc2c[nH]c3ccc(Cl)cc23)NC(=O)[C@H](Cc2c[nH]c3ccccc23)NC(=O)[C@H](CC(=O)O)NC(=O)CCCC(=O)NC[C@H](O)[C@@H](O)[C@H](O)[C@H](O)CO)CSCc2cccc(n2)CSC[C@@H](C(=O)NC2CCN(CC(=O)N[C@H](CCC(=O)NC[C@H](O)[C@@H](O)[C@H](O)[C@H](O)CO)C(N)=O)CC2)NC1=O` [GIP-030, AGLU-Glutar-Asp-Trp-5Clw-Tap-Glu-leu-[Cys(2Lut)-Apc(N4Ac)-Leu-Ile-Cys]-APAc-glu(AGLU)-NH2] ({NH(1-deoxy-D-glucityl)-Glutaryl}-DW[Trp(5-Cl)][Pro(4R-NH2)]E[dL]C[Api](X30)LIC[X1][dE](NH(1-deoxy-D-glucityl))-NH2; linker 7-11 via Pyridine(2,6-diCH2)), the IC50 was less than 0.01 µM.

With `CC[C@H](C)[C@@H]1NC(=O)[C@H](CC(C)C)NC(=O)C2(CCN(C(=O)CNC(=O)CC[C@H](C(=O)O)N3CCN(CC(=O)O)CCN(CC(=O)O)CC3)CC2)NC(=O)[C@@H](NC(=O)[C@@H](CC(C)C)NC(=O)[C@H](CCC(=O)O)NC(=O)[C@@H]2C[C@@H](N)CN2C(=O)[C@H](Cc2c[nH]c3ccc(Cl)cc23)NC(=O)[C@H](Cc2c[nH]c3ccccc23)NC(=O)[C@H](CC(=O)O)NC(=O)CCCC(=O)NC[C@H](O)[C@@H](O)[C@H](O)[C@H](O)CO)CSCc2cccc(n2)CSC[C@@H](C(=O)NC2CCN(CC(=O)N[C@H](CCC(=O)NC[C@H](O)[C@@H](O)[C@H](O)[C@H](O)CO)C(N)=O)CC2)NC1=O` [GIP-031, AGLU-Glutar-Asp-Trp-5Clw-Tap-Glu-leu-[Cys(2Lut)-Apc(NODAGA-Gly)-Leu-Ile-Cys]-APAc-glu(AGLU)-NH2] ({NH(1-deoxy-D-glucityl)-Glutaryl}-DW[Trp(5-Cl)][Pro(4R-NH2)]E[dL]C[Api]([Gly-X9])LIC[X1][dE](NH(1-deoxy-D-glucityl))-NH2; linker 7-11 via Pyridine(2,6-diCH2)), the IC50 was less than 0.01 µM.

Take `CC[C@H](C)[C@@H]1NC(=O)[C@H](CC(C)C)NC(=O)C2(CCN(C(=O)CN3CCN(CC(=O)O)CCN(CC(=O)O)CCN(CC(=O)O)CC3)CC2)NC(=O)[C@@H](NC(=O)[C@@H](CC(C)C)NC(=O)[C@H](CCC(=O)O)NC(=O)[C@@H]2C[C@@H](N)CN2C(=O)[C@H](Cc2c[nH]c3ccc(Cl)cc23)NC(=O)[C@H](Cc2c[nH]c3ccccc23)NC(=O)[C@H](CC(=O)O)NC(=O)CN2CCC(NC(=O)CCCC(=O)NC[C@H](O)[C@@H](O)[C@H](O)[C@H](O)CO)CC2)CSCc2cccc(n2)CSC[C@@H](C(=O)N[C@H](CCC(=O)NC[C@H](O)[C@@H](O)[C@H](O)[C@H](O)CO)C(N)=O)NC1=O` [GIP-033, AGLU-Glutar-APAc-Asp-Trp-5Clw-Hyp-Glu-leu-[Cys(2Lut)-Apc(DOTA)-Leu-Ile-Cys]-glu(AGLU)-NH2] ({NH(1-deoxy-D-glucityl)-Glutaryl}-[X1]DW[Trp(5-Cl)][Pro(4R-NH2)]E[dL]C[Api](DOTA)LIC[dE](NH(1-deoxy-D-glucityl))-NH2; linker 8-12 via Pyridine(2,6-diCH2)): the IC50 is less than 0.01 µM.

With `CC[C@H](C)[C@@H]1NC(=O)[C@H](CC(C)C)NC(=O)C2(CCN(C(=O)CN3CCN(CC(=O)O)CCN(CC(=O)O)CCN(CC(=O)O)CC3)CC2)NC(=O)[C@@H](NC(=O)[C@@H](CC(C)C)NC(=O)[C@H](CCC(=O)O)NC(=O)[C@@H]2C[C@@H](N)CN2C(=O)[C@H](Cc2c[nH]c3ccc(Cl)cc23)NC(=O)[C@H](Cc2c[nH]c3ccccc23)NC(=O)[C@H](CCO)NC(=O)CCCC(=O)NC[C@H](O)[C@@H](O)[C@H](O)[C@H](O)CO)CSCc2cccc(n2)CSC[C@@H](C(=O)NC2CCN(CC(=O)N[C@H](CCC(=O)NC[C@H](O)[C@@H](O)[C@H](O)[C@H](O)CO)C(N)=O)CC2)NC1=O` [GIP-034, AGLU-Glutar-Hse-Trp-5Clw-Tap-Glu-leu-[Cys(2Lut)-Apc(DOTA)-Leu-Ile-Cys]-APAc-glu(AGLU)-NH2] ({NH(1-deoxy-D-glucityl)-Glutaryl}-[hSer]W[Trp(5-Cl)][Pro(4R-NH2)]E[dL]C[Api](DOTA)LIC[X1][dE](NH(1-deoxy-D-glucityl))-NH2; linker 7-11 via Pyridine(2,6-diCH2)), the IC50 is less than 0.01 µM.

Consider `CC[C@H](C)[C@@H]1NC(=O)[C@H](CC(C)C)NC(=O)C2(CCN(C(=O)CN3CCN(CC(=O)O)CCN(CC(=O)O)CCN(CC(=O)O)CC3)CC2)NC(=O)[C@@H](NC(=O)[C@H](CC(C)C)NC(=O)[C@H](CCC(=O)O)NC(=O)[C@@H]2C[C@@H](N)CN2C(=O)[C@H](Cc2c[nH]c3ccc(Cl)cc23)NC(=O)[C@H](Cc2c[nH]c3ccccc23)NC(=O)[C@H](CC(=O)O)NC(=O)CCCC(=O)NC[C@H](O)[C@@H](O)[C@H](O)[C@H](O)CO)CSCc2cccc(n2)CSC[C@@H](C(=O)NC2CCN(CC(=O)N[C@H](CCC(=O)NC[C@H](O)[C@@H](O)[C@H](O)[C@H](O)CO)C(N)=O)CC2)NC1=O` [GIP-035, AGLU-Glutar-Asp-Trp-5Clw-Tap-Glu-Leu-[Cys(2Lut)-Apc(DOTA)-Leu-Ile-Cys]-APAc-glu(AGLU)-NH2] ({NH(1-deoxy-D-glucityl)-Glutaryl}-DW[Trp(5-Cl)][Pro(4R-NH2)]ELC[Api](DOTA)LIC[X1][dE](NH(1-deoxy-D-glucityl))-NH2; linker 7-11 via Pyridine(2,6-diCH2)), for which the IC50 was less than 0.01 µM.

As to `CC[C@H](C)[C@@H]1NC(=O)[C@H](CC(C)C)NC(=O)C2(CCOCC2)NC(=O)[C@@H](NC(=O)[C@@H](CC(C)C)NC(=O)[C@H](CCC(=O)O)NC(=O)[C@@H]2C[C@@H](O)CN2C(=O)[C@H](Cc2c[nH]c3ccc(Cl)cc23)NC(=O)[C@H](Cc2c[nH]c3ccccc23)NC(=O)[C@H](CC(=O)O)NC(=O)[C@@H](CCC(=O)NC[C@H](O)[C@@H](O)[C@H](O)[C@H](O)CO)NC(=O)CN2CCN(CC(=O)O)CCN(CC(=O)O)CCN(CC(=O)O)CC2)CSCc2cccc(n2)CSC[C@@H](C(=O)NC2CCN(CC(=O)N[C@H](CCC(=O)NC[C@H](O)[C@@H](O)[C@H](O)[C@H](O)CO)C(N)=O)CC2)NC1=O` [GIP-036, DOTA-glu(AGLU)-Asp-Trp-5Clw-Hyp-Glu-leu-[Cys(2Lut)-Thp-Leu-Ile-Cys]-APAc-glu(AGLU)-NH2] ({DOTA}-[dE](NH(1-deoxy-D-glucityl))DW[Trp(5-Cl)][Hyp]E[dL]C[Thp]LIC[X1][dE](NH(1-deoxy-D-glucityl))-NH2; linker 8-12 via Pyridine(2,6-diCH2)), the IC50 was less than 0.01 µM.

The same assay, now with this note: pIC50 Category, competition with 20 nM GIP-057, 4° C., 1 hour.
Compound `CC[C@H](C)[C@@H]1NC(=O)[C@H](CC(C)C)NC(=O)C2(CCN(C(=O)CCP(=O)(O)CN3CCN(CP(=O)(O)CO)CCN(CP(=O)(O)CO)CC3)CC2)NC(=O)[C@@H](NC(=O)[C@@H](CC(C)C)NC(=O)[C@H](CCC(=O)O)NC(=O)[C@@H]2C[C@@H](N)CN2C(=O)[C@H](Cc2c[nH]c3ccc(Cl)cc23)NC(=O)[C@H](Cc2c[nH]c3ccccc23)NC(=O)[C@H](CC(=O)O)NC(=O)CCCC(=O)NC[C@H](O)[C@@H](O)[C@H](O)[C@H](O)CO)CSCc2cccc(n2)CSC[C@@H](C(=O)NC2CCN(CC(=O)N[C@H](CCC(=O)NC[C@H](O)[C@@H](O)[C@H](O)[C@H](O)CO)C(N)=O)CC2)NC1=O` [GIP-029, AGLU-Glutar-Asp-Trp-5Clw-Tap-Glu-leu-[Cys(2Lut)-Apc(NOPO)-Leu-Ile-Cys]-APAc-glu(AGLU)-NH2] ({NH(1-deoxy-D-glucityl)-Glutaryl}-DW[Trp(5-Cl)][Pro(4R-NH2)]E[dL]C[Api](X21)LIC[X1][dE](NH(1-deoxy-D-glucityl))-NH2; linker 7-11 via Pyridine(2,6-diCH2)) showed an IC50 of less than 0.01 µM.
